Here are results for eight compounds from patent US20120015977A1, “QUINOLINONE DERIVATIVES USEFUL FOR THE TREATMENT OF CNS DISORDERS” (NEUROSEARCH A/S, priority 2009, published 2012).

The subject of series [1] is Psychomotor seizures induced via corneal stimulation (6 Hz). The series is described as follows: 6 Hz electroshock seizure model (anticonvulsant properties). To be noted: Mus musculus, po, 32 mA, 3 s corneal stimulation, p.o., pretreatment time 60 mins, vehicle 5% cremaphor, female NMRI mice, read-out: ED50 (dose that would give a 50% protection from seizures). The class given is in vivo. From the text:
The animal models being used for the discovery of novel antiepileptic drugs are numerous. Among these, a low frequency (6 Hz) electroshock seizure model has recently come into the limelight as a potential model of pharmacoresistant epilepsy (see Epilepsy: a comprehensive textbook, pag. 1477, by Jerome Engel, Timothy A. Pedley, Jean Aicardi, Marc A Dichter, Solomon Moshé—2007—Medical), and it is therefore an animal model of primary interest in antiepileptic drug discovery. The compounds of the invention have shown remarkable activity to protect against 6 Hz seizures.
The evaluation of the anticonvulsant properties was carried out in female NMRI mice (20-25 g, Taconic, Denmark). The mice were housed in groups (8 per cage according to weight) with food and water available ad libitum The environment was temperature (20±2° C.) and humidity (55±15%) controlled, and consisted of a 12:12 h light-dark cycle (lights on 06:00 h). The experiments were performed according to the Danish Committee for Experiments on Animals. […]
For screening purposes, the test compound was tested at 1 dose at 1 time-point. In the case of protection of 3 or more out of 8 mice, the compound were further evaluated in dose response (N=8/group). […]

A word on the melting point: it is the temperature, or range, at which the solid turns liquid. Consider `NC(=O)Cn1c(=O)ccc2cccc(Cl)c21` [Compound 5, 2-(8-chloro-2-oxo-1-quinolyl)acetamide], for which the melting point lay within 166.5 to 167.6 °C.

`CCC(C(N)=O)n1c(=O)ccc2cccc(Cl)c21` (stereo not drawn) [Compound 6, 2-(8-chloro-2-oxo-1-quinolyl)butanamide]: the melting point was 127 to 128 °C.

`NC(=O)Cn1c(=O)ccc2cc(Cl)ccc21` [Compound 4, 2-(6-chloro-2-oxo-1-quinolyl)acetamide] displayed a melting point of 159.4 to 160.9 °C.

The term ED50 denotes the dose at which the effect has come halfway, by size or by number of responders. For the compound `NC(=O)Cn1c(=O)ccc2cc(Br)ccc21` [Compound 1, 2-(6-Bromo-2-oxo-1-quinolyl)acetamide], the melting point was in the range of 256.6 to 257.5 °C. Moreover, in series [1], the median effective dose (ED50) was found to be 16 mg/kg.

In the case of `CCC(C(N)=O)n1c(=O)ccc2cc(Br)ccc21` (stereo not drawn) [Compound 2, 2-(6-bromo-2-oxo-1-quinolyl)butanamide], the melting point is 138.5 to 140 °C.

Regarding `CCC(C(N)=O)n1c(=O)ccc2cc(Cl)ccc21` (stereo not drawn) [Compound 7, 2-(6-chloro-2-oxo-1-quinolyl)butanamide], the melting point lay in the range of 127.5 to 128.8 °C.

Consider `CCC(C(N)=O)n1c(=O)ccc2cccc(Br)c21` (stereo not drawn) [Compound 8, 2-(8-bromo-2-oxo-1-quinolyl)butanamide], for which the melting point lay in the range of 124.2 to 125.5 °C.

On to `NC(=O)Cn1c(=O)ccc2cccc(Br)c21` [Compound 3, 2-(8-bromo-2-oxo-1-quinolyl)acetamide], for which the melting point was in the range of 158.5 to 160 °C.
